Laboratory results reported in ChEMBL document CHEMBL1151345, “Isolation of a new potential antitumor compound from Wedelia asperrima” (J Nat Prod, 1980).
Calls of active or inactive are those of the source. The calls are words filed in the database; no cut-off is given here.

Key:
Rattus norvegicus [1] = species: Rattus norvegicus; assay: Toxicity in Wistar rat; format: organism-based; details: in vivo
Mus musculus = assay: Toxicity in ip dosed mouse; format: organism-based; details: in vivo
Rattus norvegicus [2] = species: Rattus norvegicus; assay: Antitumor activity against aflatoxin B1-induced tumor in Wistar rat at 30 ug for 8 weeks; format: functional, organism-based

Row | SMILES | LD100 (Rattus norvegicus [1]) | LD100 (Mus musculus) | Activity (Rattus norvegicus [2])
1 | C=C1[C@H](O)[C@]23CC[C@H]4C(C(=O)O)(C(=O)O)C[C@@H](O[C@@H]5O[C@H](CO)[C@@H](O[C@@H]6O[C@@H](C)[C@H](O)[C@@H](O)[C@H]6O)[C@H](OC(=O)CCc6ccccc6)[C@H]5NC(=O)CC(C)C)C[C@]4(C)[C@H]2CC[C@@]1(O)C3 | 1 mg/kg | 1 mg/kg | –
2 | C=C1[C@H](O)[C@]23CC[C@H]4C(C(=O)O)(C(=O)O)C[C@@H](O[C@@H]5O[C@H](CO)[C@@H](O)[C@H](OC(=O)CCc6ccccc6)[C@H]5NC(=O)CC(C)C)C[C@]4(C)[C@H]2CC[C@@]1(O)C3 [WEDELOSIDE] | 1 mg/kg | 1 mg/kg | Active
